This is an account of results in publication PMC2630368 (The Journal of pharmacology and experimental therapeutics, 2008).

The subject of series [1] is lens induced myopia in chick. To be noted: negative lens, ref Schmid et al., 2004; cited from earlier work.
Series [2] deals with human α1β2γ2L GABAA receptors. The series can be described thus: Two-electrode voltage clamp on recombinant GABAA. Conditions: for Percentage inhibition of GABA response at GABAA(α1β2γ2L): compound 1 mM against an EC50 concentration of GABA (60 μM), n=3; for Response when applied alone (agonist effect) at GABAA(α1β2γ2L): compound 1 mM alone. The class given is cell-based. On the technique in general: Two-electrode voltage clamp holds a large cell at a set potential and records current.

For series [3], the system named is human GABAB(1b,2) receptors. The series can be described thus: Two-electrode voltage clamp on recombinant GABAB. It is filed as cell-based. Conditions: for Percentage inhibition of GABA response at GABAB(1b,2): compound 1 mM against an EC50 concentration of GABA (3 μM), GIRK1 and GIRK4, n=3; for Response when applied alone (agonist effect) at GABAB(1b,2): compound 1 mM alone.

Series [4] concerns the target human ρ1 GABAC receptors (Homo sapiens, UniProt P24046). It is filed as cell-based. Conditions: for Mode of antagonism at ρ1 GABAC receptors: GABA dose response curve in presence of 40 μM cis or 30 μM trans; for Effect when applied alone at ρ1 GABAC receptors: applied alone (cis 40 μM, trans 30 μM).
Series [5] concerns the target human ρ2 GABAC receptors (Homo sapiens, UniProt P28476). It is filed as cell-based.
In series [6] the test system is lens induced myopia in chick. The series can be described thus: Lens induced myopia. The class given is in vivo. To be noted: for Axial expansion (interocular difference) / Myopia (refractive error, interocular difference): 350 nmol intravitreal daily, −15 D lens, 4.5 days, mean ± SD; for Axial expansion reduction / Myopia reduction: 350 nmol intravitreal, versus water injected control.

Series [7] has as its system male QS mice. The series can be described thus: General behavioral and acute toxicity tests in mice. Conditions: 1, 10 and 100 mg/kg ip; 0 min to 1 week after injection. The class given is in vivo.
In series [8] the test system is male Wistar rats. The series can be described thus: Morris Water Maze learning and memory in rats. Conditions: for Behavior in pool, D1 / Behavior in pool, D2: grade 0-8; for Number to reach platform, D1 / Number to reach platform, D2: n=10. It is filed as in vivo, rat.
The test system of series [9] is native GABAC receptor on rat retinal bipolar cells. Nature of the series: Whole-cell patch-clamp on dissociated rat retinal bipolar cells. It is filed as cell-based. Conditions: GABA 10 μM, bicuculline 100 μM. For orientation: In patch-clamp work, channel activity is measured electrically.
In series [10] the test system is ρ1 GABAC receptors. To be noted: ref Chebib et al., 2007, cited from earlier work; for Potency at GABAC relative to GABAA receptors / Potency at GABAC relative to GABAB receptors: ρ1 GABAC.
The mark [11] stands for this setting: compound 30 μM co-applied with GABA (1 μM).
Where [12] appears, read: 10 mg/kg ip on D1, Trial 1, Day 1.
The mark [13] stands for this setting: 10 mg/kg ip on D1, Trial 1, Day 2.
Setting [14] is: 30 mg/kg ip on D1, Trial 1, Day 1.
Setting [15] is: 30 mg/kg ip on D1, Trial 1, Day 2.
The mark [16] stands for this setting: 100 mg/kg ip on D1, Trial 1, Day 1.
[17] abbreviates: 100 mg/kg ip on D1, Trial 1, Day 2.

Like-named read-outs stand apart in the source and are kept apart here.

Sequence of human ρ1 GABAC receptors (P24046 22-479): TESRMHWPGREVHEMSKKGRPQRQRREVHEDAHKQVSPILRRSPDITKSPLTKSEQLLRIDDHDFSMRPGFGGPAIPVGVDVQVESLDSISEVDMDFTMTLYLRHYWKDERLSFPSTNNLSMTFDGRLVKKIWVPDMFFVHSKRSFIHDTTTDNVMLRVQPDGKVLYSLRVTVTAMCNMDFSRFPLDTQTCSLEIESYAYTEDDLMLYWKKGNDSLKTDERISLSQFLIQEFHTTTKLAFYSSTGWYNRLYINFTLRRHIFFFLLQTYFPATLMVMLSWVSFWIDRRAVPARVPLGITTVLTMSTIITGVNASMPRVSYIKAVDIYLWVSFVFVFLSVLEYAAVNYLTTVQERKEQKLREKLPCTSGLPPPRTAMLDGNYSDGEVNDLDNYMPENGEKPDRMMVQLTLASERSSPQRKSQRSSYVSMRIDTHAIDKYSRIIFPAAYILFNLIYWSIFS
Sequence of human ρ2 GABAC receptors (P28476 21-465): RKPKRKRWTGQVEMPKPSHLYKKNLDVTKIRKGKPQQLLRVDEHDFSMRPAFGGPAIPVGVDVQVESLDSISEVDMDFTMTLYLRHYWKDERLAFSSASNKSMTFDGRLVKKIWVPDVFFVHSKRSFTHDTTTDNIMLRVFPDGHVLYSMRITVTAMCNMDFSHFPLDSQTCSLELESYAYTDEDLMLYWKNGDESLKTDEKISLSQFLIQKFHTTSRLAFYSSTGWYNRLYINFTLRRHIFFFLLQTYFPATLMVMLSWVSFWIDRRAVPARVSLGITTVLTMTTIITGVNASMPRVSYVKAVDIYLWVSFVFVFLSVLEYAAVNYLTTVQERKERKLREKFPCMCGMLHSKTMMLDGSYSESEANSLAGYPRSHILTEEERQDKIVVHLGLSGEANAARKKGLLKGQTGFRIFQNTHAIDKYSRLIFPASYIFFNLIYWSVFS

As to `CCCCP(=O)(O)CCCN` [CGP36742, (3-aminopropyl)-n-butylphosphinic acid], in series [1], the “Dose inhibiting a similar degree of lens-induced myopia” value was 280 nmol.
`CCCCP(=O)(O)C1CCC(N)C1` (stereo not drawn) [trans-3-ACPBPA, trans-(3-aminocyclopentanyl)butylphosphinic acid]: in [2], the “Percentage inhibition of GABA response at GABAA(α1β2γ2L)” value is on record as 28±5% and the “Response when applied alone (agonist effect) at GABAA(α1β2γ2L)” value is “no response alone”. Moreover, in series [3], the “Percentage inhibition of GABA response at GABAB(1b,2)” value is 35±5% and the “Response when applied alone (agonist effect) at GABAB(1b,2)” value is listed as “No response”. Moreover, in series [4], the IC50 (in general, the concentration needed to halve the response being measured) turned out to be 72.6 µM; the “Mode of antagonism at ρ1 GABAC receptors” value is recorded as “competitive antagonists”; the “Effect when applied alone at ρ1 GABAC receptors” value is on record as “no effect alone”. The “Inhibition of the GABA response at ρ1 GABAC receptors” value (“Inhibition of the GABA response” below) in series [4] (setting [11]) came out at 70%. The half-maximal inhibitory concentration (IC50) in [5] amounted to 190 µM. Besides, in [6], the “Axial expansion (interocular difference)” value is 0.15±0.15 mm; the “Myopia (refractive error, interocular difference)” value is −3.1±2.8 D; the Axial expansion reduction worked out at 74%; the Myopia reduction was found to be 74%. The Overt acute toxicity result in series [7] is “No overt acute toxicity”. Further, in series [8] (setting [12]), the “Median time to reach platform, D1” value amounted to 77 s; the “Behavior in pool, D1” value came out at 3; the “Number to reach platform, D1” value stood at 5. In series [8] (setting [13]), the “Median time to reach platform, D2” value is recorded as 44 s; the “Behavior in pool, D2” value is on record as 4; the “Number to reach platform, D2” value was found to be 8. Further, in series [8] (setting [14]), the “Median time to reach platform, D1” value was 82 s; the “Behavior in pool, D1” value amounted to 3; the “Number to reach platform, D1” value is given as 5. Further, in [8] (setting [15]), the “Median time to reach platform, D2” value is on record as 47 s; the “Behavior in pool, D2” value amounted to 5; the “Number to reach platform, D2” value came out at 8. For the same molecule, in [8] (setting [16]), the “Median time to reach platform, D1” value stood at 61 s; the “Behavior in pool, D1” value was 4; the “Number to reach platform, D1” value came to 6. In [8] (setting [17]), the “Median time to reach platform, D2” value stood at 28 s; the “Behavior in pool, D2” value was 6; the “Number to reach platform, D2” value stood at 9.
For `CP(=O)(O)C1=CCNCC1` [TPMPA, (1,2,5,6-tetrahydropyridin-4-yl)methylphosphinic acid, reference compound], the “Inhibition of the GABA response” value in series [4] (setting [11]) was “completely inhibited”. Further, the “Dose inhibiting a similar degree of lens-induced myopia” value in series [1] is given as 70 nmol.
As for `CCCCP(=O)(O)[C@H]1CC[C@@H](N)C1` (relative stereo) [cis-3-ACPBPA, cis-(3-aminocyclopentanyl)butylphosphinic acid], in series [2], the “Percentage inhibition of GABA response at GABAA(α1β2γ2L)” value amounted to 33±3% and the “Response when applied alone (agonist effect) at GABAA(α1β2γ2L)” value is on record as “no response alone”. In addition, in [3], the “Percentage inhibition of GABA response at GABAB(1b,2)” value is on record as 27±3% and the “Response when applied alone (agonist effect) at GABAB(1b,2)” value is recorded as “No response”. In series [4], the “Mode of antagonism at ρ1 GABAC receptors” value is “competitive antagonists” and the “Effect when applied alone at ρ1 GABAC receptors” value was “no effect alone”. Moreover, the “Potency at GABAC relative to GABAA or GABAB receptors” value in series [4] (GABAC versus GABAA or GABAB) is given as “over 100 times”. In series [4] (compound 40 μM co-applied with GABA (1 μM)), the “Inhibition of the GABA response” value is “completely inhibited”. The 50% inhibitory concentration (IC50) in series [4] (read-out: GABAC ρ1 IC50, GABA 1 μM, n=4) was found to be 5.06 µM. Besides, the “Potency relative to the trans analog at the ρ1 and ρ2 GABAC receptors” value in series [4] (ρ1 and ρ2 GABAC receptors) was “approximately 15 times”. For the same molecule, in series [5] (read-out: GABAC ρ2 IC50, GABA 1 μM, n=4), the IC50 amounted to 11.1 µM. In addition, the Hill coefficient (in general, the slope factor of the fitted curve) in [9] is listed as 0.97. In [9] (read-out: IC50 at native GABAC receptor, n=6), the half-inhibitory concentration (IC50) was determined as 47 ± 4.5 µM. Also, in series [6], the “Axial expansion (interocular difference)” value came to 0.17±0.17 mm; the “Myopia (refractive error, interocular difference)” value is −2.3±2.6 D; the Axial expansion reduction is listed as 70%; the Myopia reduction is given as 80%. Moreover, the “Dose required to inhibit a similar degree of lens-induced myopia (>80%)” value in [6] (intravitreal, chick) is listed as 35 nmol. In series [7], the Overt acute toxicity result is on record as “No overt acute toxicity”. For the same molecule, in series [8] (setting [12]), the “Median time to reach platform, D1” value is 59 s; the “Behavior in pool, D1” value was determined as 3; the “Number to reach platform, D1” value is 5. For the same molecule, in [8] (setting [13]), the “Median time to reach platform, D2” value turned out to be 71 s; the “Behavior in pool, D2” value worked out at 4; the “Number to reach platform, D2” value is 8. In addition, in series [8] (setting [14]), the “Median time to reach platform, D1” value came to 31 s; the “Behavior in pool, D1” value is 4 ^*, 4; the “Number to reach platform, D1” value is listed as 7. For the same molecule, in series [8] (setting [15]), the “Median time to reach platform, D2” value is listed as 35 s; the “Behavior in pool, D2” value is given as 4 ^*, 4; the “Number to reach platform, D2” value stood at 9. Moreover, in series [8] (setting [16]), the “Median time to reach platform, D1” value was determined as 85 s; the “Behavior in pool, D1” value is given as 3; the “Number to reach platform, D1” value amounted to 5. Besides, in [8] (setting [17]), the “Median time to reach platform, D2” value was 71 s; the “Behavior in pool, D2” value was found to be 4; the “Number to reach platform, D2” value came out at 6.
For the molecule `CP(=O)(O)[C@H]1CC[C@@H](N)C1` (relative stereo) [cis-3-ACPMPA, cis-(3-aminocyclopentanyl)methylphosphinic acid], in series [10], the “Mode of antagonism at GABAC receptors” value is “competitive antagonists”, the “Potency at GABAC relative to GABAA receptors” value was “greater than 100 times” and the “Potency at GABAC relative to GABAB receptors” value was 50 times.
Take `CN1[C@@H]2C[C@@H](OC(=O)[C@H](CO)c3ccccc3)C[C@H]1[C@@H]1O[C@@H]12` [scopolamine, reference compound]: in series [8] (1 mg/kg ip, D1, versus vehicle), the “Time taken to find the platform” value is reported as “statistically significant increase”. The Behavior score in series [8] (1 mg/kg ip, Trials 3 and 4 of D1, vehicle 6) worked out at 3.
In the case of “trans-(3-aminocyclopentanyl)methylphosphinic acid [trans-3-ACPMPA]”, in [10], the “Mode of antagonism at GABAC receptors” value was “competitive antagonists”, the “Potency at GABAC relative to GABAA receptors” value is “greater than 100 times” and the “Potency at GABAC relative to GABAB receptors” value is 50 times.
